From patent US20120165223A1 (priority 2006, published 2012) come the findings set out here.

The test system of one assay is anaerobic bacteria. As to the kind of experiment: Composition of flora in feces of HFA mice: total number of anaerobic bacteria. The assay is classed as in vivo. Particulars: 17th day, 500 μg/Ml in drinking water. The source says: (§1) For the one week, the feces were picked asceptially with the interval of two to three days. The feces collected of colistin sulfate administeration, 2nd, 4th, 7th, 10th, 13th and 17th days are put in an encapsulated tube and moved to an anaerobic chamber immediately and is put in the PRAS (Prereduced and anaerobically sterilized) TGY medium with the ten times dilution of the weight of feces. The total number of anaerobic bacteria, the number of Bacteroides fragilis and Bifidobacterium spp. of the anaerobic bacteria, the number of aerobic bacteria, and the number of Esherichia coli and Enterococcus spp. of the aerobic bacteria are measured. […] (FIG. 7)

Another assay deals with aerobic bacteria. Description: Composition of flora in feces of HFA mice: number of aerobic bacteria. The assay is classed as in vivo. The settings on record: 7th, 10th and 13th day from the medication, 500 μg/Ml in drinking water.
From the text: as §1

A further assay relates to Enterococcus spp. As to the kind of experiment: Composition of flora in feces of HFA mice: Enterococcus spp. The settings on record: 4th and 27th day from the medication, 500 μg/Ml in drinking water. It is filed as in vivo.
Another assay concerns glucosidase. As to the kind of experiment: Fecal enzyme activity of flora of HFA mice: glucosidase. It is filed as in vivo, human intestinal normal bacterial flora. The procedure: (§2) For the one week, the feces were picked free from germs with the interval of two to three days. The feces collected at the day of colistin sulfate administration, 2nd, 4th, 7th, 10th, 13th, 17th and 20th days and at 3rd and 5th day after the stop of medication are put in an encapsulated tube and moved to an anaerobic chamber immediately and the activity of glucuomidase, glucosidase, nitrate reductase and azoreductase produced by the human intestinal normal bacterial flora is measured. As a result glucuronidase is decreased throughout the period of administration and the withdrawal period in comparison with control groups and is not recovered even at the 5th day since the medication is stopped. Glucosidase is increased during the medication period in comparison with the control groups. Nitrate reductase is increased in comparison with the control group at the start day of administration and the 2nd day of the medication but is recovered. Azoreductase is increased in comparison with the control group until the 7th day of medication and then decreased.

The subject of a further assay is nitrate reductase. Description: Fecal enzyme activity of flora of HFA mice: nitrate reductase. It is filed as in vivo, human intestinal normal bacterial flora. The procedure: as §2

In the case of colistin sulfate, the “Total number of anaerobic bacteria in feces in comparison with HFA mice” value with anaerobic bacteria was “increased by about twice”. The “Number of aerobic bacteria in feces” value with aerobic bacteria is on record as “decreased”. Also, in the assay with Enterococcus spp., the “Enterococcus spp. in feces” value is listed as “decreased in similar way to the control group”. In the assay on glucosidase (5th day since the medication is stopped), the “Glucosidase activity, recovery” value is listed as “not recovered”. The “Glucosidase activity in comparison with the control groups” value with glucosidase (during the medication period) was “increased”. Further, in the assay with nitrate reductase (after the 2nd day of the medication), the “Nitrate reductase activity, recovery” value was “recovered”. Besides, the “Nitrate reductase activity in comparison with the control group” value in the assay with nitrate reductase (start day of administration and 2nd day of the medication) was “increased”.
